Molecules are shown by their SMILES. “And” between values parts separate entries of the source, which are not always exact repeats. Equal values may be shown once.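 These data come from cells grown in 96-well plates and exposed to compound for 48 hours at five concentrations. GI50 marks 50% less growth. TGI: concentration producing complete growth inhibition.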

The text below walks through data of PubChem BioAssay (NCI).

Some test systems named below: OVCAR-3 ovarian; MALME-3M melanoma; MDA-MB-231 breast; A549 NSCLC; SK-MEL-5 melanoma; NCI-H226 lung; HCT-116 colon; SK-MEL-2 melanoma; A498 renal; OVCAR-5 ovarian.
Assay in all cases: NCI-60 cell line screen, 48 h

With `Cn1c(I)c(C#C[Si](C)(C)C)c(=O)[nH]c1=O`, the GI50 with OVCAR-3 ovarian is 1.9 µM; in the assay with MALME-3M melanoma, 1.96 µM; with MDA-MB-231 breast, 2.5 µM; with A549 NSCLC, 21.5 µM; with SK-MEL-5 melanoma, 17.1 µM; in the assay on NCI-H226 lung, 12.7 µM. The GI50 is 1.89 µM with HCT-116 colon, 14.4 µM in the assay on SK-MEL-2 melanoma, 16.4 µM with A498 renal and 14.7 µM in the assay on OVCAR-5 ovarian. Also, the TGI was 3.39 µM in the assay on OVCAR-3 ovarian; 4.25 µM in the assay on MALME-3M melanoma; 7.25 µM with MDA-MB-231 breast; 38.1 µM in the assay with A549 NSCLC; 31 µM in the assay with SK-MEL-5 melanoma; 25.3 µM in the assay with NCI-H226 lung. The TGI in the assay on HCT-116 colon came to 3.57 µM; in the assay with SK-MEL-2 melanoma, 28.3 µM; in the assay on A498 renal, 30.2 µM; with OVCAR-5 ovarian it was 30.8 µM.

On to `CNc1cc(-c2cccc(OC(F)(F)F)c2)nc2ccc(N3CCCC3)cc12`, for which the GI50 was 1.69 µM and 1.92 µM and 1.86 µM in the assay on OVCAR-3 ovarian; 1.78 µM and 1.92 µM and 1.7 µM in the assay on MALME-3M melanoma; 1.72 µM and 1.7 µM and 1.46 µM in the assay with MDA-MB-231 breast; 1.79 µM and 1.66 µM and 1.75 µM in the assay with A549 NSCLC; 1.74 µM and 1.65 µM and 1.64 µM in the assay on SK-MEL-5 melanoma; 2.49 µM and 1.88 µM with NCI-H226 lung. Further, the GI50 is 1.3 µM and 1.79 µM and 1.21 µM with HCT-116 colon; 1.72 µM and 1.69 µM and 1.77 µM with SK-MEL-2 melanoma; 1.17 µM and 1.61 µM and 1.66 µM in the assay on A498 renal; 1.68 µM and 2.04 µM and 1.87 µM in the assay with OVCAR-5 ovarian. Also, the TGI in the assay with OVCAR-3 ovarian was 3.14 µM and 3.6 µM and 3.39 µM; in the assay on MALME-3M melanoma it was 3.24 µM and 3.4 µM and 3.16 µM; with MDA-MB-231 breast it was 3.23 µM and 3.14 µM and 2.95 µM; in the assay with A549 NSCLC, 3.26 µM and 3.03 µM and 3.27 µM; in the assay on SK-MEL-5 melanoma, 3.12 µM and 3.06 µM and 3.01 µM; in the assay with NCI-H226 lung, 4.58 µM and 3.77 µM. For the same compound, the TGI in the assay on HCT-116 colon is 2.58 µM and 3.32 µM and 2.52 µM; in the assay on SK-MEL-2 melanoma, 3.19 µM and 3.17 µM and 3.23 µM; in the assay on A498 renal it was 2.41 µM and 3 µM and 3.08 µM; with OVCAR-5 ovarian, 3.18 µM and 3.73 µM and 3.34 µM.

With `CC(=O)c1c(C)c2cnc(Nc3ccc(N4CCNCC4)cn3)nc2n(C2CCCC2)c1=O`, the GI50 with OVCAR-3 ovarian is 15.9 µM; with MALME-3M melanoma, 8.25 µM; with MDA-MB-231 breast it was 9.84 µM; in the assay on A549 NSCLC, 3.69 µM; in the assay on SK-MEL-5 melanoma it was 2.58 µM; in the assay with NCI-H226 lung, 6.07 µM. Further, the GI50 was 3.07 µM in the assay with HCT-116 colon, 11.5 µM in the assay with SK-MEL-2 melanoma, 4.69 µM in the assay with A498 renal and 8.59 µM in the assay on OVCAR-5 ovarian. Also, the TGI in the assay with OVCAR-3 ovarian turned out to be 30.4 µM; in the assay on MALME-3M melanoma, 24.4 µM; in the assay with MDA-MB-231 breast it was 24.9 µM; in the assay on A549 NSCLC it was 19.2 µM; in the assay with SK-MEL-5 melanoma, 9.94 µM; with NCI-H226 lung, 22.4 µM. The TGI with HCT-116 colon worked out at 16.3 µM; with SK-MEL-2 melanoma, 25.3 µM; in the assay on A498 renal it was 19.5 µM; in the assay with OVCAR-5 ovarian, 22.3 µM.

As to `O=C(CI)Nc1ccc(Br)cc1`, the GI50 in the assay with OVCAR-3 ovarian was 1.72 µM; in the assay with MALME-3M melanoma it was 2.1 µM; in the assay on MDA-MB-231 breast, 2.6 µM; with A549 NSCLC, 5.89 µM; in the assay on SK-MEL-5 melanoma it was 3.95 µM; in the assay on NCI-H226 lung it was 3.78 µM. Further, the GI50 with HCT-116 colon was 1.88 µM; in the assay on SK-MEL-2 melanoma, 2.9 µM; in the assay on A498 renal, 16.3 µM; in the assay on OVCAR-5 ovarian it was 2.14 µM. Besides, the TGI with OVCAR-3 ovarian worked out at 3.25 µM; in the assay with MALME-3M melanoma, 4.29 µM; in the assay with MDA-MB-231 breast, 5.51 µM; in the assay on A549 NSCLC it was 29.3 µM; in the assay on SK-MEL-5 melanoma, 15.4 µM; in the assay on NCI-H226 lung, 19.2 µM. The TGI in the assay on HCT-116 colon turned out to be 3.45 µM; in the assay with SK-MEL-2 melanoma, 8.03 µM; in the assay on A498 renal, 33.1 µM; in the assay with OVCAR-5 ovarian it was 4.81 µM.

For the compound `COC(=O)CC1=C(C)/C(=C/c2[nH]c(-c3ccc[nH]3)cc2OC)N=C1C`, the GI50 is 0.204 µM in the assay on OVCAR-3 ovarian; 0.72 µM with MALME-3M melanoma; 0.0681 µM in the assay on MDA-MB-231 breast; 0.248 µM with A549 NSCLC; 0.0461 µM in the assay on SK-MEL-5 melanoma; 0.068 µM in the assay on NCI-H226 lung. Also, the GI50 in the assay with HCT-116 colon is 0.0819 µM; in the assay on SK-MEL-2 melanoma, 0.149 µM; with A498 renal it was 1.02 µM; in the assay with OVCAR-5 ovarian, 0.195 µM. In addition, the TGI in the assay with OVCAR-3 ovarian came out at 1.36 µM; with MALME-3M melanoma, 2.35 µM; in the assay on MDA-MB-231 breast it was 0.994 µM; in the assay on A549 NSCLC, 3.69 µM; in the assay on SK-MEL-5 melanoma, 0.107 µM; in the assay on NCI-H226 lung, 0.881 µM. In addition, the TGI was 1.16 µM with HCT-116 colon, 0.354 µM with SK-MEL-2 melanoma, 5.39 µM in the assay on A498 renal and 6.06 µM in the assay with OVCAR-5 ovarian.

On to `C=C(C)C(=O)Nc1ccc(-c2c(-c3ccc(Oc4nccc(C)n4)c(F)c3)c3c(N)ncnc3n2C)cc1`, for which the GI50 in the assay on OVCAR-3 ovarian is 4.77 µM; with MALME-3M melanoma, 3.29 µM; in the assay with MDA-MB-231 breast it was 3.57 µM; with A549 NSCLC, 3.6 µM; in the assay with SK-MEL-5 melanoma, 2.36 µM; with NCI-H226 lung, 0.812 µM. Further, the GI50 in the assay on HCT-116 colon is 5.05 µM; in the assay with SK-MEL-2 melanoma, 2.7 µM; in the assay on A498 renal, 1.72 µM; in the assay on OVCAR-5 ovarian, 4.43 µM. The TGI in the assay on OVCAR-3 ovarian stood at 18.4 µM; with MALME-3M melanoma, 17 µM; in the assay on MDA-MB-231 breast it was 22.2 µM; with A549 NSCLC it was 18.5 µM; in the assay on SK-MEL-5 melanoma, 8.21 µM; with NCI-H226 lung, 7.46 µM. For the same compound, the TGI with HCT-116 colon worked out at 19.8 µM; in the assay with SK-MEL-2 melanoma, 9.74 µM; with A498 renal it was 9.88 µM; in the assay on OVCAR-5 ovarian, 20.9 µM.

For `N=C(CC(=O)Nc1ccccn1)c1ccccc1`, the TGI in the assay on OVCAR-3 ovarian, in the assay with MALME-3M melanoma, in the assay on MDA-MB-231 breast, in the assay with A549 NSCLC, with SK-MEL-5 melanoma and in the assay with NCI-H226 lung was greater than 100 µM in each case. Besides, the TGI with HCT-116 colon, with SK-MEL-2 melanoma, in the assay with A498 renal and with OVCAR-5 ovarian was greater than 100 µM each time.

For `COc1cc(C(=O)n2nc(N)c3c(C)cc(C)nc32)cc(OC)c1OC`, the GI50 with OVCAR-3 ovarian was greater than 88.9 µM; with MALME-3M melanoma it was greater than 100 µM; with MDA-MB-231 breast, greater than 100 µM; in the assay on A549 NSCLC it was 41.5 µM; in the assay on SK-MEL-5 melanoma it was 35.2 µM; in the assay on NCI-H226 lung, greater than 100 µM. The GI50 with HCT-116 colon is 42 µM; in the assay with SK-MEL-2 melanoma, greater than 64.1 µM; with A498 renal, greater than 20.8 µM; in the assay on OVCAR-5 ovarian, greater than 100 µM. Moreover, the TGI with OVCAR-3 ovarian, in the assay with MALME-3M melanoma, in the assay on MDA-MB-231 breast, in the assay on A549 NSCLC, with SK-MEL-5 melanoma and in the assay on NCI-H226 lung was greater than 100 µM each time. In addition, the TGI in the assay on HCT-116 colon, in the assay with SK-MEL-2 melanoma, with A498 renal and in the assay on OVCAR-5 ovarian was greater than 100 µM throughout.
